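Each compound was tested at five concentrations against cells in 96-well plates for 48 hours. TGI: total growth inhibition.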
Experiments:
Test in all cases: inhibition of tumour cell growth, NCI panel, 48 h
786-0 renal = system: 786-0 renal
A498 renal = system: A498 renal
A549 NSCLC = system: A549 NSCLC
ACHN renal = system: ACHN renal
BT-549 breast = system: BT-549 breast
CAKI-1 renal = system: CAKI-1 renal
CCRF-CEM leukemia = system: CCRF-CEM leukemia
COLO 205 colon = system: COLO 205 colon
DU-145 prostate = system: DU-145 prostate
EKVX NSCLC = system: EKVX NSCLC
HCT-116 colon = system: HCT-116 colon
HCT-15 colon = system: HCT-15 colon
HL-60(TB) leukemia = system: HL-60(TB) leukemia
HOP-62 NSCLC = system: HOP-62 NSCLC
HOP-92 NSCLC = system: HOP-92 NSCLC
HS 578T breast = system: HS 578T breast
HT29 colon = system: HT29 colon
IGROV1 ovarian = system: IGROV1 ovarian
K-562 leukemia = system: K-562 leukemia
KM12 colon = system: KM12 colon
LOX IMVI melanoma = system: LOX IMVI melanoma
M14 melanoma = system: M14 melanoma
MALME-3M melanoma = system: MALME-3M melanoma
MCF7 breast = system: MCF7 breast
MDA-MB-231 breast = system: MDA-MB-231 breast
MDA-MB-435 = system: MDA-MB-435
MDA-N = system: MDA-N
MOLT-4 leukemia = system: MOLT-4 leukemia
NCI-H226 lung = system: NCI-H226 lung
NCI-H23 lung = system: NCI-H23 lung
NCI-H460 lung = system: NCI-H460 lung
NCI-H522 lung = system: NCI-H522 lung
NCI/ADR-RES ovarian = system: NCI/ADR-RES ovarian
OVCAR-3 ovarian = system: OVCAR-3 ovarian
OVCAR-4 ovarian = system: OVCAR-4 ovarian
OVCAR-5 ovarian = system: OVCAR-5 ovarian
OVCAR-8 ovarian = system: OVCAR-8 ovarian
PC-3 prostate = system: PC-3 prostate
RPMI-8226 leukemia = system: RPMI-8226 leukemia
RXF 393 renal = system: RXF 393 renal
SF-268 CNS = system: SF-268 CNS
SF-295 CNS = system: SF-295 CNS
SF-539 CNS = system: SF-539 CNS
SK-MEL-2 melanoma = system: SK-MEL-2 melanoma
SK-MEL-28 melanoma = system: SK-MEL-28 melanoma
SK-MEL-5 melanoma = system: SK-MEL-5 melanoma
SK-OV-3 ovarian = system: SK-OV-3 ovarian
SN12C renal = system: SN12C renal
SNB-19 CNS = system: SNB-19 CNS
SNB-75 CNS = system: SNB-75 CNS
SR leukemia = system: SR leukemia
SW-620 colon = system: SW-620 colon
T-47D breast = system: T-47D breast
TK-10 renal = system: TK-10 renal
U251 CNS = system: U251 CNS
UACC-257 melanoma = system: UACC-257 melanoma
UACC-62 melanoma = system: UACC-62 melanoma
UO-31 renal = system: UO-31 renal
HCC-2998 colon = system: HCC-2998 colon

Measured: TGI

c1ccc(C2=NC3(CCCCC3)N(c3nc4ccccc4s3)N2)nc1
49.6 µM: T-47D breast
75.9 µM: KM12 colon
76.6 µM: SNB-75 CNS
65.3 µM: NCI/ADR-RES ovarian
43.4 µM: UACC-257 melanoma
59.2 µM: M14 melanoma
65.6 µM: NCI-H226 lung
69.9 µM: SN12C renal
57.7 µM: RXF 393 renal
46.9 µM: PC-3 prostate
91.5 µM: CAKI-1 renal
86.5 µM: MDA-N
26.8 µM: SR leukemia
84.8 µM: NCI-H23 lung
49 µM: U251 CNS
32 µM: NCI-H460 lung
42.6 µM: SK-MEL-2 melanoma
> 100 µM: A498 renal | A549 NSCLC | ACHN renal | DU-145 prostate | EKVX NSCLC | HCT-116 colon | HCT-15 colon | HOP-62 NSCLC | HOP-92 NSCLC | HS 578T breast | IGROV1 ovarian | K-562 leukemia | MALME-3M melanoma | MCF7 breast | MOLT-4 leukemia | NCI-H522 lung | OVCAR-4 ovarian | OVCAR-5 ovarian | OVCAR-8 ovarian | SF-268 CNS | SF-295 CNS | SF-539 CNS | SK-MEL-28 melanoma | SK-OV-3 ovarian | SNB-19 CNS | SW-620 colon | UACC-62 melanoma | UO-31 renal
40.6 µM: SK-MEL-5 melanoma
64.7 µM: MDA-MB-231 breast
63.6 µM: MDA-MB-435
51.2 µM: OVCAR-3 ovarian
87.2 µM: CCRF-CEM leukemia
58.2 µM: BT-549 breast
80.3 µM: HL-60(TB) leukemia
51.6 µM: LOX IMVI melanoma
42.2 µM: 786-0 renal
52.8 µM: RPMI-8226 leukemia | TK-10 renal
41.4 µM: COLO 205 colon
58 µM: HT29 colon

CC(=O)NC1C(OCc2ccccc2)OC(CO)C(O)C1OCC(=O)NC(C)C(=O)NC(CCC(=O)NCCCCNc1ccc([N+](=O)[O-])c2[nH]c3ccccc3c(=O)c12)C(N)=O (centres undefined)
> 100 µM: 786-0 renal | A498 renal | A549 NSCLC | ACHN renal | BT-549 breast | CAKI-1 renal | COLO 205 colon | DU-145 prostate | EKVX NSCLC | HCC-2998 colon | HCT-116 colon | HCT-15 colon | HL-60(TB) leukemia | HOP-62 NSCLC | HOP-92 NSCLC | HT29 colon | IGROV1 ovarian | K-562 leukemia | KM12 colon | LOX IMVI melanoma | M14 melanoma | MALME-3M melanoma | MCF7 breast | MDA-MB-231 breast | MDA-MB-435 | MDA-N | NCI-H226 lung | NCI-H23 lung | NCI-H460 lung | NCI/ADR-RES ovarian | OVCAR-3 ovarian | OVCAR-4 ovarian | OVCAR-5 ovarian | OVCAR-8 ovarian | PC-3 prostate | SF-268 CNS | SF-295 CNS | SF-539 CNS | SK-MEL-2 melanoma | SK-MEL-28 melanoma | SK-OV-3 ovarian | SN12C renal | SNB-19 CNS | SNB-75 CNS | SR leukemia | SW-620 colon | T-47D breast | TK-10 renal | U251 CNS | UO-31 renal
75.2 µM: HS 578T breast

Source: PubChem BioAssay (NCI)
